Measured values taken from US7579013B2, “Formulations for coated microprojections containing non-volatile counterions” (Alza Corporation, priority 2003, dated 2009).

Assay: Solubility in water
Format: physicochemical
Conditions: at pH about 5

- solubility in water (concentration): > 20%
Compound: CC[C@H](C)[C@H](NC(=O)[C@H](CCC(=O)O)NC(=O)[C@H](CO)NC(=O)[C@@H](NC(=O)[C@@H](N)CO)C(C)C)C(=O)N[C@@H](CCC(N)=O)C(=O)N[C@@H](CC(C)C)C(=O)N[C@@H](CCSC)C(=O)N[C@@H](Cc1cnc[nH]1)C(=O)N[C@@H](CC(N)=O)C(=O)N[C@@H](CC(C)C)C(=O)NCC(=O)N[C@@H](CCCCN)C(=O)N[C@@H](Cc1cnc[nH]1)C(=O)N[C@@H](CC(C)C)C(=O)N[C@@H](CC(N)=O)C(=O)N[C@@H](CO)C(=O)N[C@@H](CCSC)C(=O)N[C@@H](CCC(=O)O)C(=O)N[C@@H](CCCN=C(N)N)C(=O)N[C@H](C(=O)N[C@@H](CCC(=O)O)C(=O)N[C@@H](Cc1c[nH]c2ccccc12)C(=O)N[C@@H](CC(C)C)C(=O)N[C@@H](CCCN=C(N)N)C(=O)N[C@@H](CCCCN)C(=O)N[C@@H](CCCCN)C(=O)N[C@@H](CC(C)C)C(=O)N[C@@H](CCC(N)=O)C(=O)N[C@@H](CC(=O)O)C(=O)N[C@H](C(=O)N[C@@H](Cc1cnc[nH]1)C(=O)N[C@@H](CC(N)=O)C(=O)N[C@@H](Cc1ccccc1)C(=O)O)C(C)C)C(C)C [hPTH(1-34)]
